≈ marks a conversion by molar mass, not a printed value.
Key:
Assay type in all cases: cell-based
[1] = test system: vancomycin-susceptibie enterococci (Enterococcus faecium and Enterococcus faecalis); experiment: mean geometric MIC, broth micro-dilution; details: 24-hour incubation
Entercoccus faecalis 276 = experiment: MIC, standard broth micro-dilution assay
Procedure: (§1) The formula I compounds have in vitro and in vivo activity against Gram-positive pathogenic bacteria. The MIC's were determined using a standard broth micro-dilution assay.

[2] = test system: Entercoccus gallinarum 245; experiment: MIC, standard broth micro-dilution assay
Procedure: as §1

[3] = test system: Entercoccus faecalis 2041; experiment: MIC, standard broth micro-dilution assay
Procedure: as §1

[4] = test system: vancomycin-resistant enterococci (Enterococcus faecium and Enterococcus faecalis); experiment: mean geometric MIC, broth micro-dilution; details: 24-hour incubation
[5] = test system: Streptococcus pneumoniae P1; experiment: MIC, standard broth micro-dilution assay
Procedure: (§2) The MIC's were determined using a standard broth micro-dilution assay.

Entercoccus faecium 180 = experiment: MIC, standard broth micro-dilution assay
Procedure: as §2

[6] = test system: Staphylococcus aureus 446; experiment: MIC, standard broth micro-dilution assay
Procedure: as §2

[7] = test system: Staphylococcus aureus 489; experiment: MIC, standard broth micro-dilution assay
Procedure: as §2

[8] = test system: Staphylococcus epidermidis 270; experiment: MIC, standard broth micro-dilution assay
Procedure: as §2

[9] = test system: Staphylococcus aureus X778; experiment: MIC, standard broth micro-dilution assay
Procedure: as §2

[10] = test system: Staphylococcus aureus SA1199; experiment: MIC, standard broth micro-dilution assay
Procedure: as §2

[11] = test system: Staphylococcus aureus 491; experiment: MIC, standard broth micro-dilution assay
Procedure: as §2

[12] = test system: Staphylococcus haemolyticus 415; experiment: MIC, standard broth micro-dilution assay
Procedure: as §2

Escherichia coli EC14 = experiment: MIC, standard broth micro-dilution assay
Procedure: as §2

[13] = test system: Staphylococcus aureus X400; experiment: MIC, standard broth micro-dilution assay
Procedure: as §2

[14] = test system: Staphylococcus aureus SA1199A; experiment: MIC, standard broth micro-dilution assay
Procedure: as §2

[15] = test system: Entercoccus faecium 180-1; experiment: MIC, standard broth micro-dilution assay
Procedure: as §2

[16] = test system: Streptococcus pyogenes C203; experiment: MIC, standard broth micro-dilution assay
Procedure: as §2

[17] = test system: Staphylococcus aureus 447; experiment: MIC, standard broth micro-dilution assay
Procedure: as §2

[18] = test system: Staphylococcus haemolyticus 105; experiment: MIC, standard broth micro-dilution assay
Procedure: as §2

[19] = test system: Staphylococcus aureus SA1199B
Procedure: as §2

[20] = test system: Staphylococcus aureus S13E
Procedure: as §2

Pediococcus pentosaceus = experiment: MIC, agar dilution on brain-heart infusion agar; details: Pediococcus pentosaceus (mean of 2)
Pedicoccus acidilacti = experiment: MIC, agar dilution on brain-heart infusion agar; details: Pedioccccus acidilacti (mean of 10)
[21] = test system: Leuconostoc mesenteroides; experiment: MIC, agar dilution on brain-heart infusion agar; details: Leuconostoc mesenteroides (mean of 4)
Lactobacillus confusus = experiment: MIC, agar dilution on brain-heart infusion agar
Leuconostoc lactis = experiment: MIC, agar dilution on brain-heart infusion agar; details: Leuconostoc lactis (mean of 2)

Q: For `CNC(CC(C)C)C(=O)NC1C(=O)NC(CC(N)=O)C(=O)NC2C(=O)NC3C(=O)NC(C(=O)NC(C(=O)O)c4cc(O)cc(O)c4-c4cc3ccc4O)C(OC3CC(C)(N)C(O)C(C)O3)c3ccc(c(Cl)c3)Oc3cc2cc(c3OC2OC(CO)C(O)C(O)C2OC2CC(C)(NCc3cccc(Oc4cccc(C(F)(F)F)c4)c3)C(O)C(C)O2)Oc2ccc(cc2Cl)C1O` (stereo not shown) [Compound 111], which “mean geometric MIC, Vancomycin Sensitive Strains” value [1] is on record?
A: The value was 0.054 µg/mL.

Q: And the MIC (Entercoccus faecalis 276)?
A: The MIC was 0.5 µg/mL (≈ 0.271 µM).

Q: What about the MIC [2] of the same compound?
A: Its MIC is 4 µg/mL (≈ 2.17 µM).

Q: And the MIC [3]?
A: Its MIC is at most 0.06 µg/mL.

Q: What about the “mean geometric MIC, Vancomycin Resistant Strains” value [4] of the same compound?
A: The value was 0.84 µg/mL.

Q: How did the MIC [5] turn out when `CNC(CC(C)C)C(=O)NC1C(=O)NC(CC(N)=O)C(=O)NC2C(=O)NC3C(=O)NC(C(=O)NC(C(=O)O)c4cc(O)cc(O)c4-c4cc3ccc4O)C(OC3CC(C)(N)C(O)C(C)O3)c3ccc(c(Cl)c3)Oc3cc2cc(c3OC2OC(CO)C(O)C(O)C2OC2CC(C)(NCC(C)=Cc3ccc(C(C)(C)C)cc3)C(O)C(C)O2)Oc2ccc(cc2Cl)C1O` (stereo not shown) [Compound 42, 2,3-[2-methyl-3-[4-t-butylphenyl]]propenyl] was run?
A: Its MIC is at most 0.06 µg/mL.

Q: And the MIC (Entercoccus faecium 180)?
A: The MIC was 0.25 µg/mL (≈ 0.141 µM).

Q: What about the MIC [6] of the same compound?
A: The MIC was 1 µg/mL (≈ 0.562 µM).

Q: What about the MIC [7] of the same compound?
A: The MIC was 0.5 µg/mL (≈ 0.281 µM).

Q: And the MIC [8]?
A: Its MIC is 0.5 µg/mL (≈ 0.281 µM).

Q: What about the MIC [9] of the same compound?
A: Its MIC is 1 µg/mL (≈ 0.562 µM).

Q: What about the MIC [10] of the same compound?
A: The MIC was 1 µg/mL (≈ 0.562 µM).

Q: And the MIC [11]?
A: The MIC was 0.5 µg/mL (≈ 0.281 µM).

Q: What about the MIC [12] of the same compound?
A: Its MIC is 1 µg/mL (≈ 0.562 µM).

Q: What about the MIC (Escherichia coli EC14) of the same compound?
A: Its MIC is over 64 µg/mL.

Q: What about the MIC [13] of the same compound?
A: Its MIC is 1 µg/mL (≈ 0.562 µM).

Q: And the MIC [14]?
A: Its MIC is at most 0.06 µg/mL.

Q: And the MIC [15]?
A: Its MIC is at most 0.06 µg/mL.

Q: What about the MIC [16] of the same compound?
A: Its MIC is at most 0.06 µg/mL.

Q: And the MIC [17]?
A: The MIC was 0.5 µg/mL (≈ 0.281 µM).

Q: And the MIC [18]?
A: The MIC was 2 µg/mL (≈ 1.12 µM).

Q: What about the MIC (Entercoccus faecalis 276) of the same compound?
A: The MIC was 8 µg/mL (≈ 4.5 µM).

Q: What about the MIC [2] of the same compound?
A: Its MIC is 1 µg/mL (≈ 0.562 µM).

Q: And the MIC [3]?
A: The MIC was 0.125 µg/mL (≈ 0.0703 µM).

Q: And the MIC [19]?
A: Its MIC is 2 µg/mL (≈ 1.12 µM).

Q: And the MIC [20]?
A: Its MIC is 0.5 µg/mL (≈ 0.281 µM).

Q: With `CNC(CC(C)C)C(=O)NC1C(=O)NC(CC(N)=O)C(=O)NC2C(=O)NC3C(=O)NC(C(=O)NC(C(=O)O)c4cc(O)cc(O)c4-c4cc3ccc4O)C(OC3CC(C)(N)C(O)C(C)O3)c3ccc(c(Cl)c3)Oc3cc2cc(c3OC2OC(CO)C(O)C(O)C2OC2CC(C)(NCc3ccc(SC)cc3)C(O)C(C)O2)Oc2ccc(cc2Cl)C1O` (stereo not shown) [Compound 41, 4-thiomethylbenzyl] as the compound, how does the MIC [5] read?
A: The MIC was at most 0.06 µg/mL.

Q: What about the MIC (Entercoccus faecium 180) of the same compound?
A: The MIC was 0.25 µg/mL (≈ 0.145 µM).

Q: What about the MIC [6] of the same compound?
A: The MIC was 2 µg/mL (≈ 1.16 µM).

Q: What about the MIC [7] of the same compound?
A: Its MIC is at most 0.06 µg/mL.

Q: And the MIC [8]?
A: The MIC was 0.25 µg/mL (≈ 0.145 µM).

Q: And the MIC [9]?
A: Its MIC is 0.125 µg/mL (≈ 0.0723 µM).

Q: And the MIC [10]?
A: The MIC was at most 0.06 µg/mL.

Q: And the MIC [11]?
A: Its MIC is 0.5 µg/mL (≈ 0.289 µM).

Q: What about the MIC [12] of the same compound?
A: The MIC was 4 µg/mL (≈ 2.31 µM).

Q: And the MIC (Escherichia coli EC14)?
A: Its MIC is over 64 µg/mL.

Q: And the MIC [13]?
A: The MIC was at most 0.06 µg/mL.

Q: And the MIC [14]?
A: Its MIC is at most 0.06 µg/mL.

Q: What about the MIC [15] of the same compound?
A: The MIC was at most 0.06 µg/mL.

Q: What about the MIC [16] of the same compound?
A: The MIC was at most 0.06 µg/mL.

Q: And the MIC [17]?
A: Its MIC is 0.25 µg/mL (≈ 0.145 µM).

Q: What about the MIC [18] of the same compound?
A: Its MIC is 2 µg/mL (≈ 1.16 µM).

Q: What about the MIC (Pediococcus pentosaceus) of the same compound?
A: Its MIC is 91 µg/mL (≈ 52.6 µM).

Q: And the MIC (Pedicoccus acidilacti)?
A: Its MIC is 71 µg/mL (≈ 41.1 µM).

Q: And the MIC (Entercoccus faecalis 276)?
A: The MIC was at most 0.06 µg/mL.

Q: And the MIC [2]?
A: The MIC was at most 0.06 µg/mL.

Q: And the MIC [3]?
A: Its MIC is at most 0.06 µg/mL.

Q: And the MIC [21]?
A: Its MIC is 91 µg/mL (≈ 52.6 µM).

Q: And the MIC (Lactobacillus confusus)?
A: Its MIC is 64 µg/mL (≈ 37 µM).

Q: What about the MIC (Leuconostoc lactis) of the same compound?
A: Its MIC is 91 µg/mL (≈ 52.6 µM).

Q: And the MIC [19]?
A: The MIC was 0.25 µg/mL (≈ 0.145 µM).

Q: And the MIC [20]?
A: Its MIC is at most 0.06 µg/mL.
